The values below come from ChEMBL document CHEMBL3351376, “Design, synthesis, and structure-activity relationship of novel opioid κ receptor selective agonists: α-iminoamide derivatives with an azabicyclo[2.2.2]octene skeleton” (Bioorg Med Chem Lett, 2014).

One may read the Ki as a measure of affinity in units of concentration, obtained from inhibition or displacement. A higher Ki goes with lower affinity. For orientation: EC50 means the concentration needed to bring the measured effect to its halfway point. One may read the Emax as the size of the effect at its maximum, as opposed to the concentration needed.

For assay [1], the target named is Mu-type opioid receptor (Mus musculus, UniProt P42866). As to the kind of experiment: Displacement of [3H]DAMGO from mu opioid receptor in mouse brain membranes without cerebellum. The format is cell membranes, Membrane.
Mu-type opioid receptor (Mus musculus, UniProt P42866), sequence (P42866 whole entry): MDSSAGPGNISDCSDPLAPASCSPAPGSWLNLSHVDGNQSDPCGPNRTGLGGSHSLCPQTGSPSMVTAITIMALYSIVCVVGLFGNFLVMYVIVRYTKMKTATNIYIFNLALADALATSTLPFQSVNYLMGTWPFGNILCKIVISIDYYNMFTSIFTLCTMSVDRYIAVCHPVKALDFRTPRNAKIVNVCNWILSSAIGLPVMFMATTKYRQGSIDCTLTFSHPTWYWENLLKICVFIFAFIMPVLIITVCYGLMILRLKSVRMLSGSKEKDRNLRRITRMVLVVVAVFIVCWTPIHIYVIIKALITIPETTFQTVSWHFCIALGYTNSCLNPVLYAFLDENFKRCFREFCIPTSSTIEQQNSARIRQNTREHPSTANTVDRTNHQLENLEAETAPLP
In assay [2] the target is Delta-type opioid receptor (Mus musculus, UniProt P32300). As to the kind of experiment: Displacement of [3H]DPDPE from delta opioid receptor in mouse brain membranes without cerebellum. Format: cell membranes, Membrane. In general terms: Loss of bound radioactivity is the signal in a displacement assay; it reports binding, not function.
Delta-type opioid receptor (Mus musculus, UniProt P32300), sequence (P32300 whole entry): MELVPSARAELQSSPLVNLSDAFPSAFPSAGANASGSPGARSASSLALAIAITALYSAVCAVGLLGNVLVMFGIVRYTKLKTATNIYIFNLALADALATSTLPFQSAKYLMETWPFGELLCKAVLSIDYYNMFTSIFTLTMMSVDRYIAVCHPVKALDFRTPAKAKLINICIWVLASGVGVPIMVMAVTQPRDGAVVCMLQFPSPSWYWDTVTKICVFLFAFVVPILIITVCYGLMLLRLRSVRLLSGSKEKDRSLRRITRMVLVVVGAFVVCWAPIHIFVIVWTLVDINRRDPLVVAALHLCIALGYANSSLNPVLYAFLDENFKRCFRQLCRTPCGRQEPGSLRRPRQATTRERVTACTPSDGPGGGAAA
Assay [3] addresses Kappa-type opioid receptor (Cavia porcellus, UniProt P41144). As to the kind of experiment: Displacement of [3H]U-69593 from kappa opioid receptor in guinea pig cerebellum.
The nature of assay [4]: Selectivity ratio of Ki for mu opioid receptor in mouse brain membranes without cerebellum to Ki for kappa opioid receptor in guinea pig cerebellum. Format: cell membranes.
Assay [5] addresses T1, Mu-type opioid receptor (Homo sapiens, UniProt P35372). The assay is described as follows: Agonist activity at human mu opioid receptor expressed in CHO cells by [35S]GTPgammaS binding assay. The format is functional, cell-based.
For assay [6], the target named is T1, Mu-type opioid receptor. The assay is described as follows: Agonist activity at human mu opioid receptor expressed in CHO cells by [35S]GTPgammaS binding assay relative to DAMGO. The format is functional, cell-based.
Assay [7] addresses T2, Delta-type opioid receptor (Homo sapiens, UniProt P41143). As to the kind of experiment: Agonist activity at human delta opioid receptor expressed in CHO cells by [35S]GTPgammaS binding assay relative to SNC80. Format: functional, cell-based. In general terms: GTPγS is a poorly hydrolysed GTP analogue; its binding reports G protein activation.
The target of assay [8] is T2, Delta-type opioid receptor. As to the kind of experiment: Agonist activity at human delta opioid receptor expressed in CHO cells by [35S]GTPgammaS binding assay. The format is functional, cell-based.
Assay [9] addresses T3, Kappa-type opioid receptor (Homo sapiens, UniProt P41145). The assay is described as follows: Agonist activity at human kappa opioid receptor expressed in CHO cells by [35S]GTPgammaS binding assay. Format: functional, cell-based.
Assay [10] addresses T3, Kappa-type opioid receptor. The assay is described as follows: Agonist activity at human kappa opioid receptor expressed in CHO cells by [35S]GTPgammaS binding assay relative to U-69593. Format: functional, cell-based.

A value given as a limit tells only on which side of the number the result lay.

T3 sequence (P41145 whole entry): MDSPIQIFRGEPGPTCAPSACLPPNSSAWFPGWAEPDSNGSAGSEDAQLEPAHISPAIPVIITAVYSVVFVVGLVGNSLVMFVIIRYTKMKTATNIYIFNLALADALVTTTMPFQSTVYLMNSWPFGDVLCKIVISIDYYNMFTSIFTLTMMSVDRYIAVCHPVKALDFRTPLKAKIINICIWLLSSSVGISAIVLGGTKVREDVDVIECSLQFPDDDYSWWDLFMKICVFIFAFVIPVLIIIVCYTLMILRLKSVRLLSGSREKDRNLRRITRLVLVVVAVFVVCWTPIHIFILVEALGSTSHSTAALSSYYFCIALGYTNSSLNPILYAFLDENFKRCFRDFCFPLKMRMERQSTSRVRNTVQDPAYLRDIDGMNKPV
T2 sequence (P41143 whole entry): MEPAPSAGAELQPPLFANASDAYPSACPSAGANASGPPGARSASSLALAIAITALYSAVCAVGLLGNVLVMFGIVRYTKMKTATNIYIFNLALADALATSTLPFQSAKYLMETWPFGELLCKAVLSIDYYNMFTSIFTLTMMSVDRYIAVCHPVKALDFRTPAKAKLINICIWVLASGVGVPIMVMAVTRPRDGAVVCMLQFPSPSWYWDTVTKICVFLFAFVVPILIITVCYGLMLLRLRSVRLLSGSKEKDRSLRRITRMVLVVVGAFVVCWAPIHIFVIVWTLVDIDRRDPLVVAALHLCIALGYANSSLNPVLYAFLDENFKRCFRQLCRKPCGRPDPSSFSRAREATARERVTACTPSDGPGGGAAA
Kappa-type opioid receptor (Cavia porcellus, UniProt P41144), sequence (P41144 whole entry): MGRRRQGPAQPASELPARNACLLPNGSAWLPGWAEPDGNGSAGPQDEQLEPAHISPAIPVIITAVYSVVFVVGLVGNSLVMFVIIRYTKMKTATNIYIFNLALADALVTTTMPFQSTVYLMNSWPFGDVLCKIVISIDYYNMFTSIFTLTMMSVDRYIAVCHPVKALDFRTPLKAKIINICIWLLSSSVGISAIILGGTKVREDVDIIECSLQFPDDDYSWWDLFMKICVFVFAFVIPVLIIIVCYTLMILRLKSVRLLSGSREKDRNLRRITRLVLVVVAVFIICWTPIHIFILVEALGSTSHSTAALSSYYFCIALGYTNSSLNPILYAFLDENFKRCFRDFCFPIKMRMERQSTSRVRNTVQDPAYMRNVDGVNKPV
T1 sequence (P35372 whole entry): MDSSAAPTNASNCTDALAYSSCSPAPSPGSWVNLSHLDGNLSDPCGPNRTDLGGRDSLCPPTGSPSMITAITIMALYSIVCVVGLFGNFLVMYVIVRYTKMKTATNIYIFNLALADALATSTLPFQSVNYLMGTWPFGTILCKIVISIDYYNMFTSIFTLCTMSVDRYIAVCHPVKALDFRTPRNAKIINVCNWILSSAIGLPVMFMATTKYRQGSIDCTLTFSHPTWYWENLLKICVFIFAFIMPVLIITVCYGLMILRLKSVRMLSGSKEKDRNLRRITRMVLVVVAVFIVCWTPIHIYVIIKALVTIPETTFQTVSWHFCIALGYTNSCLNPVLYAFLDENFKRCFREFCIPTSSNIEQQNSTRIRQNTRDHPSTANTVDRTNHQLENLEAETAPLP

In the case of `O=C(Nc1ccccc1)C1=N[C@@]23CC[C@]1(O)C1Oc4c(O)ccc5c4C12CCN(CC1CC1)C3C5` (some centres undefined), the Ki in assay [1] amounted to 0.36 nM; in assay [2] it was 0.32 nM; in assay [3], 0.38 nM. In [4], the Ratio Ki turned out to be 0.95.

Take `CN(C(=O)/C=C/c1ccoc1)[C@@H]1CC[C@@]2(O)[C@H]3Cc4ccc(O)c5c4[C@@]2(CCN3CC2CC2)[C@H]1O5` [NALFURAFINE]: the midpoint of the response in assay [5], the EC50, lay at 0.72 nM. The Emax was found to be 70.4% in assay [6] and 55.2% in assay [7].

On to `O=C(C[C@H]1N[C@@]23CC[C@]1(O)C1Oc4c(O)ccc5c4C12CCN(CC1CC1)C3C5)NCc1ccccc1` (some centres undefined), for which the Ki was determined as 0.052 nM in [1], 0.15 nM in assay [2] and 0.037 nM in assay [3]. Moreover, in [4], the Ratio Ki is 1.42.

As for `O=C(NCCc1ccccc1)C1=N[C@@]23CC[C@]1(O)C1Oc4c(O)ccc5c4C12CCN(CC1CC1)C3C5` (some centres undefined), the values for the Ki in assay [1], in assay [2] and in assay [3] were 0.4 nM, 0.86 nM and 0.12 nM, respectively. Besides, the Ratio Ki in assay [4] was found to be 3.5. Moreover, the EC50 in [5] was 1.09 nM; in [8], > 1000 nM; in [9], 0.18 nM. Further, the Emax in assay [6] came out at 44.9%; in assay [10], 76.3%.

`O=C1C[C@H]2N(CN1Cc1ccccc1)[C@@]13CC[C@]2(O)C2Oc4c(O)ccc5c4C21CCN(CC1CC1)C3C5` (some centres undefined): the Ki in assay [1] is 0.43 nM; in [2], 4.93 nM; in [3], 1.54 nM. The Ratio Ki in assay [4] is 0.28.

As to `O=C(NCc1ccccc1)[C@@H]1N[C@@]23CC[C@]1(O)C1Oc4c(O)ccc5c4C12CCN(CC1CC1)C3C5` (some centres undefined), the Ki in assay [1] is 0.15 nM; in assay [2], 0.45 nM; in assay [3], 0.18 nM. Also, the Ratio Ki in assay [4] is 0.83.

Turning to `O=C(C[C@@H]1N[C@@]23CC[C@]1(O)C1Oc4c(O)ccc5c4C12CCN(CC1CC1)C3C5)NCc1ccccc1` (some centres undefined), the Ki in assay [1] is 0.13 nM; in assay [2], 1.12 nM; in assay [3], 0.11 nM. Besides, in assay [4], the Ratio Ki was 1.16.

Take `O=C(NCc1ccccc1)[C@H]1N[C@@]23CC[C@]1(O)C1Oc4c(O)ccc5c4C12CCN(CC1CC1)C3C5` (some centres undefined): the Ki in [1] is 0.24 nM; in assay [2] it was 0.81 nM; in assay [3], 0.23 nM. In addition, the Ratio Ki in assay [4] stood at 1.04.

Turning to `O=C1C[C@@H]2N(CN1Cc1ccccc1)[C@@]13CC[C@]2(O)C2Oc4c(O)ccc5c4C21CCN(CC1CC1)C3C5` (some centres undefined), the Ki in assay [1] came to 0.68 nM; in [2], 3.83 nM; in assay [3] it was 7.74 nM. Further, the Ratio Ki in [4] came out at 0.09.

With `O=C(NCc1ccccc1)C1=N[C@@]23CC[C@]1(O)C1Oc4c(O)ccc5c4C12CCN(CC1CC1)C3C5` (some centres undefined), the figures for the inhibitory constant (Ki) in [1], in assay [2] and in [3] were 0.14 nM, 0.61 nM and 0.043 nM, respectively. Also, in assay [4], the Ratio Ki worked out at 3.25. In addition, the EC50 was determined as 0.4 nM in assay [5], 1.7 nM in assay [8] and 0.033 nM in assay [9]. Further, the Emax in [6] is 101%; in assay [7], 93.2%; in [10], 91.2%.

Regarding `Oc1ccc2c3c1OC1C34CCN(CC3CC3)C(C2)[C@]42CC[C@@]1(O)C=N2` (some centres undefined), the figures for the Ki in assay [1], in [2] and in [3] were 0.28 nM, 6.12 nM and 1.42 nM, respectively. Also, in assay [4], the Ratio Ki was 0.2.
